Experimental data from US20170007595A1, “NSD3 INHIBITORS FOR TREATMENT OF CANCERS” (THE BRIGHAM AND WOMEN'S HOSPITAL, INC., priority 2014, published 2017).

Experiments:
[1] = tested on: macrophages; conditions: cited from earlier work
[2] = tested on: 1221 cells (NSD3-NUT-positive NMC); assay: high throughput 384-well immunofluorescence analysis (keratin, Ki-67, cell number) of 1221 NMC cells; format: cell-based, human; conditions: 72 h, dose-dependent
Procedure: For TC-797, Per403, and 8645 cells, 7×10^6 cells were transfected with 50 nM siRNA using Nucleofector II (Lonza, Basel, Switzerland) and Amaxa solution R and plated in 100 mm cell culture dish. 1221 cells were transfected using RNAi-MAX (Invitrogen) using the manufacturer's protocol. Briefly, reverse transfection procedure was used to deliver 50 nM siRNA to 33×10^4 cells in a 6 well plate. Cells were analyzed for mRNA levels 24 h after transfection. Sequences of siRNA used were: siControl, ON-TARGET plus siRNA #1 (Dharmacon, Cat # D-001810-01-20), siNUT-1 (targeting coding sequence) […] (SEQ ID NO: 57), siNUT-2 (targeting the 3′ UTR) […] (SEQ ID NO: 58), siBRD4 5′ siGENOME Human BRD4 (Dharmacon Cat # D-004937-02), siBRD4 3′ […] (SEQ ID NO: 59), siNSD3-6 ON-TARGETplus Human WHSC1L1 (54904) (Dharmacon Cat # J-012875-06), siNSD3-7, ON-TARGETplus Human WHSC1L1 (54904) siRNA (Dharmacon Cat # J-012875-07), siNSD3 3′-1 […] (SEQ ID NO: 15), si NSD3 3′-2 […] […]
Cells were transfected in 384 well format using 50 nM control siRNA (above), NSD3 siRNA (above), BRD4 siRNA, and NUT siRNA (above), as described (6), or a dose range of JQ1 treatment. […] Each condition was performed in triplicate in 384-well plate format in three separate experiments, where wells were analyzed using MetaXpress with Multi Wavelength Cell Scoring for cell number, average keratin fluorescence pixel intensity, and % Ki-67 per well. […]

[3] = tested on: BET Bromodomains; conditions: cited from earlier work
[4] = target: T1, NSD3 (endogenous, wild type) (human, UniProt Q9BZ95 1-1437, limits assumed); assay: anti-HA co-immunoprecipitation from C33A-6TR lysates, Western blot with anti-NSD3
T1 construct: Endogenous protein of cell lysates detected with an anti-NSD3 antibody; also called wild type NSD3; WHSC1L1
T1 sequence: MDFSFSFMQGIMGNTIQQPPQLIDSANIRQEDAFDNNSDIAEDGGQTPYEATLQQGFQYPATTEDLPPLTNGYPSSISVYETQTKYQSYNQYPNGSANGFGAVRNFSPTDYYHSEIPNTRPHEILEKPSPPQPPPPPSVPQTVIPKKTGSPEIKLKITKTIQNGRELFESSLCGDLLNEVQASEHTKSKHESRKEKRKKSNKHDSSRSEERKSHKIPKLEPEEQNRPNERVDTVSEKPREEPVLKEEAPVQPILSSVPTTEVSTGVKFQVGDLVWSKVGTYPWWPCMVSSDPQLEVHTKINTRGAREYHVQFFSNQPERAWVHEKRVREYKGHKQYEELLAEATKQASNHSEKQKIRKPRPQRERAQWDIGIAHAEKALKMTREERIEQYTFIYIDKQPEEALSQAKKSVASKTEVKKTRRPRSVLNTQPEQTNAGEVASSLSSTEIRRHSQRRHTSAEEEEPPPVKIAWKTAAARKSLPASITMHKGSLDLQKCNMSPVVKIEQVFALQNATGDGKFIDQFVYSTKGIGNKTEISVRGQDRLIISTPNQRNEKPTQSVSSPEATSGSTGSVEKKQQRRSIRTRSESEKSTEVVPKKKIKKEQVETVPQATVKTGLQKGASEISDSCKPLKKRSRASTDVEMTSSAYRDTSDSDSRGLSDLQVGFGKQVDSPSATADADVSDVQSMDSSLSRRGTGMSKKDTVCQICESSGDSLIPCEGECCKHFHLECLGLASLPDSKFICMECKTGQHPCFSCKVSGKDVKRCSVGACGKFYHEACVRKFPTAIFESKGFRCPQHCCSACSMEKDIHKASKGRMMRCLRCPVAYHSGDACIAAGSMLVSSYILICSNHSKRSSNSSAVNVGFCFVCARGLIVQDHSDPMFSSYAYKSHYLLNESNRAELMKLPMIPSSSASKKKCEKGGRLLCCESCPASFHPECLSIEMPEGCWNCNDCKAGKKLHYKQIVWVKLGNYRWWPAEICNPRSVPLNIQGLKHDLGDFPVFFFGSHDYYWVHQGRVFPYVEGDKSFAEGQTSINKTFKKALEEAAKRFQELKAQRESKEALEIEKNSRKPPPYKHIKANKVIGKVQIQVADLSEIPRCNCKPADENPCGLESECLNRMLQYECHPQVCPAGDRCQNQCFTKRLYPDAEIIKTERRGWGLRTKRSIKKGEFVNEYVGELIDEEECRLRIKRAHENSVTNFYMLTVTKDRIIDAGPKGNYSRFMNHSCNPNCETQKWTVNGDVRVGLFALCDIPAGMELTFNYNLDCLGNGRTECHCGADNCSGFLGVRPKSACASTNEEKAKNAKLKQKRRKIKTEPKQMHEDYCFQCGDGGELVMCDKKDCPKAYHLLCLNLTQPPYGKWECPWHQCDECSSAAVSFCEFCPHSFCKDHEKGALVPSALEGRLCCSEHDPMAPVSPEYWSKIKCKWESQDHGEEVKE
Procedure: For co-immunoprecipitation experiments of HA-tagged proteins, C33A-6TR cells stably expressing HA-tagged constructs under a Tet-inducible promoter were used. Protein extracts were prepared 24 h after transfection or induction with Doxycycline (1 μg/ml). Cells were lysed in lysis buffer (50 mM Tris-HCl [pH 7.5], 150 mM NaCl, 0.5% Nonidet P-40) with freshly added protease inhibitors (Roche Complete, EDTA free protease inhibitor cocktail, Roche, Indianapolis, Ind.). Extracts were adjusted for protein concentration and 10% of extracts were used as Input Immunoprecipitations were performed using 15 μl of HA-resin (Sigma A2095). Extracts were incubated overnight at 4° C., and precipitated proteins were detected by Western blot analysis.

CCNC(=O)C[C@@H]1N=C(c2ccc(Cl)cc2)c2cc(OC)ccc2-n2c(C)nnc21 [I-BET-762]
production of proinflammatory proteins by macrophages [1]: suppresses the production of proinflammatory proteins

Cc1sc2c(c1C)C(c1ccc(Cl)cc1)=N[C@@H](CC(=O)OC(C)(C)C)c1nnc(C)n1-2 [JQ1, (S)-tert-butyl 2-(4-(4-chlorophenyl)-2,3,9-trimethyl-6H-thieno[3,2-f][1,2,4]triazolo[4,3-a][1,4]diazepin-6-yl)acetate]
differentiation (keratin intensity) ([2]; dose range of JQ1 vs DMSO): results in differentiation | proliferation (cell number) ([2]; increasing concentrations of JQ1 vs DMSO): arrested proliferation

O=c1cc(N2CCOCC2)oc2c(-c3ccccc3)cccc12 [LY294002]
BET inhibition [3]: reported to be a BET inhibitor

B1: HA-tagged NUT (full length) (other)
chain: MASDGASALPGPDMSMKPSAALSPSPALPFLPPTSDPPDHPPREPPPQPIMPSVFSPDNPLMLSAFPSSLLVTGDGGPCLSGAGAGKVIVRVKTEGGSAEPSQTQNFILTQTALNSTAPGTPCGGLEGPAPPFVTASNVKTILPSKAVGVSQEGPPGLPPQPPPPVAQLVPIVPLEKAWPGPHGTTGEGGPVATLSKPSLGDRSKISKDVYENFRQWQRYKALARRHLSQSPDTEALSCFLIPVLRSLARLKPTMTLEEGLPLAVQEWEHTSNFDRMIFYEMAERFMEFEAEEMQIQNTQLMNGSQGLSPATPLKLDPLGPLASEVCQQPVYIPKKAASKTRAPRRRQRKAQRPPAPEAPKEIPPEAVKEYVDIMEWLVGTHLATGESDGKQEEEGQQQEEEGMYPDPGLLSYINELCSQKVFVSKVEAVIHPQFLADLLSPEKQRDPLALIEELEQEEGLTLAQLVQKRLMALEEEEDAEAPPSFSGAQLDSSPSGSVEDEDGDGRLRPSPGLQGAGGAACLGKVSSSGKRAREVHGGQEQALDSPRGMHRDGNTLPSPSSWDLQPELAAPQGTPGPLGVERRGSGKVINQVSLHQDGHLGGAGPPGHCLVADRTSEALPLCWQGGFQPESTPSLDAGLAELAPLQGQGLEKQVLGLQKGQQTGGRGVLPQGKEPLAVPWEGSSGAMWGDDRGTPMAQSYDQNPSPRAAGERDDVCLSPGVWLSSEMDAVGLELPVQIEEVIESFQVEKCVTEYQEGCQGLGSRGMISLGPGETLVPGDTESSVIPCGGTVAAAALEKRNYCSLPGPLRANSPPLRSKENQEQSCETVGHPSDLWAEGCFPLLESGDSTLGSSKETLPPTCQGNLLIMGTEDASSLPEASQEAGSRGSFSPLLETIEPVNILDVKDDCGLQLRVSEDTCPLNVHSYDPQGEGRVDPDLSKPKNLAPLQESQESYTTGTPKATSSHQGLGSTLPRRGTRNAIVPRETSVSKTHRSADRAKGKEKKKKEAEEEDEELSNFAYLLASKLSLSPREHPLSPHHASGGQGSQRASHLLPAGAKGPSKLPYPVAKSGKRALAGGPAPTEKTPHSGAQLGVPREKPLALGVVRPSQPRKRRCDSFVTGRRKKRRRSQ
notes: also called HA-NUT; not shown: N-terminal HA tag
binding result [4]: no binding
